Measured values from the supplement of paper PMC11665569.
± gives the standard deviation of the averaged measurements.

Columns and labels:
Conditions in all cases: treatment time: 5 days
[1] = test system: H1373
Procedure: (§1)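 CCK-8 viability of KRAS G12C-mutant cancer cell lines transfected with control, YAP/TAZ or TEAD1-4 siRNAs and treated with KRAS G12C inhibitors for 5 days; IC50 fitted in Prism after normalising absorbance at 450 nm to vehicle control.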

[2] = test system: H1792
Procedure: as §1

[3] = test system: H2030
Procedure: as §1

[4] = test system: H358
Procedure: as §1

[5] = test system: KYSE410
Procedure: as §1

[6] = test system: MIAPACA2
Procedure: as §1

[7] = test system: SW1573
Procedure: as §1

[8] = test system: SW1573; assay: relative viability (fraction of vehicle control); higher = more viable / less inhibited
Procedure: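 CCK-8 viability of SW1573 cells transfected with control, YAP/TAZ or TEAD1-4 siRNAs and treated with KRAS G12C inhibitors for 5 days. Values are normalised to vehicle control.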

[9] = test system: H1373; assay: as above
Procedure: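 CCK-8 viability of H1373 cells with empty vector or constitutively active YAP S127A, treated with KRAS G12C inhibitors for 5 days, normalised to vehicle control.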

[10] = siRNA knockdown (Con = control): Con
[11] = siRNA knockdown (Con = control): YAP_WWTR1_si1
[12] = siRNA knockdown (Con = control): YAP_WWTR1_si2
[13] = siRNA knockdown (Con = control): TEAD1234_si2
[14] = siRNA knockdown (Con = control): TEAD1234_si1

For `C=C(F)C(=O)N1CCN(c2nc(OC[C@@H]3CCCN3C)nc3c2CCN(c2cccc4cccc(Cl)c24)C3)C[C@@H]1CC#N` [MRTX849], the “IC50 (cell viability, 5 days)” value [1, 10] was 82.1 nM, the “IC50 (cell viability, 5 days)” value [1, 11] was 19.3 nM and the “IC50 (cell viability, 5 days)” value [1, 12] was 11.4 nM. The “IC50 (cell viability, 5 days)” value [2, 10] was 304 nM, the “IC50 (cell viability, 5 days)” value [2, 11] was 55 nM and the “IC50 (cell viability, 5 days)” value [2, 12] was 45.6 nM. The “IC50 (cell viability, 5 days)” value [3, 10] was 1500 nM, the “IC50 (cell viability, 5 days)” value [3, 13] was 28 nM and the “IC50 (cell viability, 5 days)” value [4, 10] was 9.45 nM. For the same compound, the “IC50 (cell viability, 5 days)” value [4, 14] was 5.61 nM, the “IC50 (cell viability, 5 days)” value [4, 13] was 3.74 nM and the “IC50 (cell viability, 5 days)” value [4, 11] was 5.52 nM. The “IC50 (cell viability, 5 days)” value [4, 12] was 5.33 nM, the “IC50 (cell viability, 5 days)” value [5, 10] was 1260 nM and the “IC50 (cell viability, 5 days)” value [5, 14] was 415 nM. For the same compound, the “IC50 (cell viability, 5 days)” value [5, 13] was 83.3 nM, the “IC50 (cell viability, 5 days)” value [5, 11] was 80 nM and the “IC50 (cell viability, 5 days)” value [5, 12] was 27.2 nM. The “IC50 (cell viability, 5 days)” value [6, 10] was 115 nM, the “IC50 (cell viability, 5 days)” value [6, 14] was 52.6 nM and the “IC50 (cell viability, 5 days)” value [6, 13] was 49.4 nM. For the same compound, the “IC50 (cell viability, 5 days)” value [6, 11] was 34.4 nM, the “IC50 (cell viability, 5 days)” value [6, 12] was 60.6 nM and the “IC50 (cell viability, 5 days)” value [7, 10] was 926 nM. The “IC50 (cell viability, 5 days)” value [7, 14] was 7.3 nM, the “IC50 (cell viability, 5 days)” value [7, 13] was 4.3 nM and the relative viability ([8]; log10 concentration (uM): 0, siRNA knockdown: TEAD1-4 siRNA 1) was 0.154 ± 0.02. For the same compound, the relative viability ([8]; log10 concentration (uM): 0, siRNA knockdown: TEAD1-4 siRNA 2) was 0.307 ± 0.062, the relative viability ([8]; log10 concentration (uM): 0, siRNA knockdown: YAP/TAZ siRNA 1) was 0.0935 ± 0.015 and the relative viability ([8]; log10 concentration (uM): 0, siRNA knockdown: YAP/TAZ siRNA 2) was 0.0411 ± 0.0087. For the same compound, the relative viability ([8]; log10 concentration (uM): 0, siRNA knockdown: negative control siRNA) was 0.426 ± 0.091, the relative viability ([8]; log10 concentration (uM): 0.69897, siRNA knockdown: TEAD1-4 siRNA 1) was 0.0234 ± 0.0063 and the relative viability ([8]; log10 concentration (uM): 0.69897, siRNA knockdown: TEAD1-4 siRNA 2) was 0.127 ± 0.03. It also gave a relative viability ([8]; log10 concentration (uM): 0.69897, siRNA knockdown: YAP/TAZ siRNA 1) of 0.00636 ± 0.0042, a relative viability ([8]; log10 concentration (uM): 0.69897, siRNA knockdown: YAP/TAZ siRNA 2) of 0.00791 ± 0.0041 and a relative viability ([8]; log10 concentration (uM): 0.69897, siRNA knockdown: negative control siRNA) of 0.00854 ± 0.0029. The relative viability ([8]; log10 concentration (uM): -0.30103, siRNA knockdown: TEAD1-4 siRNA 1) was 0.173 ± 0.015, the relative viability ([8]; log10 concentration (uM): -0.30103, siRNA knockdown: TEAD1-4 siRNA 2) was 0.246 ± 0.02 and the relative viability ([8]; log10 concentration (uM): -0.30103, siRNA knockdown: YAP/TAZ siRNA 1) was 0.141 ± 0.007. The relative viability ([8]; log10 concentration (uM): -0.30103, siRNA knockdown: YAP/TAZ siRNA 2) was 0.0897 ± 0.0099, the relative viability ([8]; log10 concentration (uM): -0.30103, siRNA knockdown: negative control siRNA) was 0.66 ± 0.035 and the relative viability ([8]; log10 concentration (uM): -1, siRNA knockdown: TEAD1-4 siRNA 1) was 0.244 ± 0.026. It also gave a relative viability ([8]; log10 concentration (uM): -1, siRNA knockdown: TEAD1-4 siRNA 2) of 0.263 ± 0.053, a relative viability ([8]; log10 concentration (uM): -1, siRNA knockdown: YAP/TAZ siRNA 1) of 0.154 ± 0.034 and a relative viability ([8]; log10 concentration (uM): -1, siRNA knockdown: YAP/TAZ siRNA 2) of 0.0905 ± 0.0041. For the same compound, the relative viability ([8]; log10 concentration (uM): -1, siRNA knockdown: negative control siRNA) was 0.726 ± 0.012, the relative viability ([8]; log10 concentration (uM): -1.30103, siRNA knockdown: TEAD1-4 siRNA 1) was 0.262 ± 0.049 and the relative viability ([8]; log10 concentration (uM): -1.30103, siRNA knockdown: TEAD1-4 siRNA 2) was 0.289 ± 0.026. For the same compound, the relative viability ([8]; log10 concentration (uM): -1.30103, siRNA knockdown: YAP/TAZ siRNA 1) was 0.161 ± 0.0043, the relative viability ([8]; log10 concentration (uM): -1.30103, siRNA knockdown: YAP/TAZ siRNA 2) was 0.108 ± 0.014 and the relative viability ([8]; log10 concentration (uM): -1.30103, siRNA knockdown: negative control siRNA) was 0.751 ± 0.028. For the same compound, the relative viability ([8]; log10 concentration (uM): -2, siRNA knockdown: TEAD1-4 siRNA 1) was 0.463 ± 0.022, the relative viability ([8]; log10 concentration (uM): -2, siRNA knockdown: TEAD1-4 siRNA 2) was 0.452 ± 0.075 and the relative viability ([8]; log10 concentration (uM): -2, siRNA knockdown: YAP/TAZ siRNA 1) was 0.23 ± 0.018. The relative viability ([8]; log10 concentration (uM): -2, siRNA knockdown: YAP/TAZ siRNA 2) was 0.181 ± 0.0047, the relative viability ([8]; log10 concentration (uM): -2, siRNA knockdown: negative control siRNA) was 0.847 ± 0.029 and the relative viability ([8]; log10 concentration (uM): -2.30103, siRNA knockdown: TEAD1-4 siRNA 1) was 0.552 ± 0.046. For the same compound, the relative viability ([8]; log10 concentration (uM): -2.30103, siRNA knockdown: TEAD1-4 siRNA 2) was 0.5 ± 0.073, the relative viability ([8]; log10 concentration (uM): -2.30103, siRNA knockdown: YAP/TAZ siRNA 1) was 0.345 ± 0.022 and the relative viability ([8]; log10 concentration (uM): -2.30103, siRNA knockdown: YAP/TAZ siRNA 2) was 0.308 ± 0.012. It also gave a relative viability ([8]; log10 concentration (uM): -2.30103, siRNA knockdown: negative control siRNA) of 0.915 ± 0.043, a relative viability ([8]; log10 concentration (uM): -3, siRNA knockdown: TEAD1-4 siRNA 1) of 0.913 ± 0.026 and a relative viability ([8]; log10 concentration (uM): -3, siRNA knockdown: TEAD1-4 siRNA 2) of 0.702 ± 0.093. For the same compound, the relative viability ([8]; log10 concentration (uM): -3, siRNA knockdown: YAP/TAZ siRNA 1) was 0.582 ± 0.034, the relative viability ([8]; log10 concentration (uM): -3, siRNA knockdown: YAP/TAZ siRNA 2) was 0.531 ± 0.012 and the relative viability ([8]; log10 concentration (uM): -3, siRNA knockdown: negative control siRNA) was 0.978 ± 0.08. For the same compound, the relative viability ([8]; log10 concentration (uM): -4, siRNA knockdown: TEAD1-4 siRNA 1) was 0.988 ± 0.081, the relative viability ([8]; log10 concentration (uM): -4, siRNA knockdown: TEAD1-4 siRNA 2) was 0.877 ± 0.072 and the relative viability ([8]; log10 concentration (uM): -4, siRNA knockdown: YAP/TAZ siRNA 1) was 0.915 ± 0.038. The relative viability ([8]; log10 concentration (uM): -4, siRNA knockdown: YAP/TAZ siRNA 2) was 0.845 ± 0.056, the relative viability ([8]; log10 concentration (uM): -4, siRNA knockdown: negative control siRNA) was 0.997 ± 0.053 and the relative viability ([9]; log10 concentration (uM): 0, ectopic expression: YAP S127A) was 0.547 ± 0.044. For the same compound, the relative viability ([9]; log10 concentration (uM): 0, ectopic expression: empty vector (YAP experiment)) was 0.301 ± 0.0055, the relative viability ([9]; log10 concentration (uM): 0.69897, ectopic expression: YAP S127A) was 0.0844 ± 0.017 and the relative viability ([9]; log10 concentration (uM): 0.69897, ectopic expression: empty vector (YAP experiment)) was 0.0167 ± 0.003. It also gave a relative viability ([9]; log10 concentration (uM): -0.30103, ectopic expression: YAP S127A) of 0.529 ± 0.036, a relative viability ([9]; log10 concentration (uM): -0.30103, ectopic expression: empty vector (YAP experiment)) of 0.307 ± 0.02 and a relative viability ([9]; log10 concentration (uM): -1, ectopic expression: YAP S127A) of 0.591 ± 0.028. It also gave a relative viability ([9]; log10 concentration (uM): -1, ectopic expression: empty vector (YAP experiment)) of 0.436 ± 0.012, a relative viability ([9]; log10 concentration (uM): -1.30103, ectopic expression: YAP S127A) of 0.578 ± 0.053 and a relative viability ([9]; log10 concentration (uM): -1.30103, ectopic expression: empty vector (YAP experiment)) of 0.45 ± 0.035. For the same compound, the relative viability ([9]; log10 concentration (uM): -2, ectopic expression: YAP S127A) was 0.781 ± 0.18, the relative viability ([9]; log10 concentration (uM): -2, ectopic expression: empty vector (YAP experiment)) was 0.863 ± 0.093 and the relative viability ([9]; log10 concentration (uM): -2.30103, ectopic expression: YAP S127A) was 0.818 ± 0.066. For the same compound, the relative viability ([9]; log10 concentration (uM): -2.30103, ectopic expression: empty vector (YAP experiment)) was 0.904 ± 0.063, the relative viability ([9]; log10 concentration (uM): -3, ectopic expression: YAP S127A) was 0.938 ± 0.066 and the relative viability ([9]; log10 concentration (uM): -3, ectopic expression: empty vector (YAP experiment)) was 1.07 ± 0.074. It also gave a relative viability ([9]; log10 concentration (uM): -4, ectopic expression: YAP S127A) of 1.01 ± 0.012 and a relative viability ([9]; log10 concentration (uM): -4, ectopic expression: empty vector (YAP experiment)) of 0.995 ± 0.062.
